Assays:
Format in all cases: biochemical
human thrombin = human thrombin (Homo sapiens, UniProt P00734); experiment: Thrombin amidase inhibition (Kass), chromogenic substrate
Method: The assay is carried out by mixing 50 μl buffer (0.03M Tris, 0.15M NaCl, pH 7.4) with 25 μl of human thrombin solution (purified human thrombin, Enzyme Research Laboratories, South Bend, Ind., at 8 NIH units/ml) and 25 μl of test compound in a solvent (50% aqueous methanol (v:v)). Then 150 μl of an aqueous solution of the chromogenic substate (at 0.25 mg/ml) are added and the rates of hydrolysis of the substrate are measured by monitoring the reactions at 405 nm for the release of p-nitroaniline. Standard curves are constructed by plotting free thrombin concentration against hydrolysis rate. […] The amount of free inhibitor in each assay is calculated by subtracting the number of moles of bound thrombin from the number of moles of added inhibitor (test compound).
The Kass value is the hypothetical equilibrium constant for the reaction between thrombin and the test compound (I) . [formula]
Kass is calculated for a range of concentrations of test compounds and the mean value reported in units of liter per mole.

factor Xa = biological target: T1, factor Xa (Homo sapiens, UniProt P00742); experiment: Serine protease inhibition (Kass), factor Xa
T1 construct: Human factors X, Xa, IXa, XIa, and XIIa are purchased from Enzyme Research Laboratories; purchased Enzyme Research Laboratories, South Bend, Ind
Method: (§1) By substantially following the procedures described above for human thrombin, and using other human blood coagulation system serine proteases and using fibrinolytic system serine proteases, with the appropriate chromogenic substrates, identified below, the selectivity of the compounds of the present invention with respect to the coagulation factor serine proteases and to the fibronolytic serine proteases are evaluated as well as their substantial lack of interference with human plasma clot fibrinolysis.
(§2) Human factors X, Xa, IXa, XIa, and XIIa are purchased from Enzyme Research Laboratories, South Bend, Ind.; human urokinase from Leo Pharmaceuticals, Denmark; and recombinant activated Protein C (aPC) is prepared at Eli Lilly and Co. substantially according to U.S. Pat. No. 4,981,952 incorporated by reference herein in its entirety. Chromogenic substrates: N-Benzoyl-Ile-Glu-Gly-Arg-p-nitroanilide (for factor Xa); N-Cbz-D-Arg-Gly-Arg-p-nitroanilide (for factor IXa assay as the factor Xa substrate); Pyroglutamyl-Pro-Arg-p-nitroanilide (for Factor XIa and for aPC); H-D-Pro-Phe-Arg-p-nitroanilide (for factor XIIa); and Pyroglutamyl-Gly-Arg-p-nitroanilide (for urokinase); are purchased from KabiVitrum, Stockholm, Sweden, or from Midwest Biotech, Fishers, Ind. Bovine trypsin is purchased from Worthington Biochemicals, Freehold, N.J., and human plasma kallikrein from Kabi Vitrum, Stockholm, Sweden. Chromogenic substrate H-D-Pro-Phe-Arg-p-nitroanilide for plasma kallikrein is purchased from Kabi Vitrum, Stockholm, Sweden. N-Benzoyl-Phe-Val-Arg-p-nitroanilide, the substrate for human thrombin and for trypsin, is synthesized according to procedures described above for the compounds of the present invention, using known methods of peptide coupling from commercially available reactants, or purchaed from Midwest Biotech, Fishers, Ind.

Bovine trypsin = biological target: T2, Bovine trypsin (Bos taurus, UniProt P00760); experiment: Serine protease inhibition (Kass), trypsin
T2 construct: Bovine trypsin is purchased from Worthington Biochemicals; purchased Worthington Biochemicals, Freehold, N.J
T2 sequence (P00760 24-246): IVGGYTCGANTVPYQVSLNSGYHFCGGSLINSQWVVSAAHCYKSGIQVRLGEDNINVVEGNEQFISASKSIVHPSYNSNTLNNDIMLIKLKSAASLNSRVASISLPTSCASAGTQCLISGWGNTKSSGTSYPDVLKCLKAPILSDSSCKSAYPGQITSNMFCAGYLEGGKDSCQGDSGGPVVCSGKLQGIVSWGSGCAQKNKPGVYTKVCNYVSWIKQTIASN
Method: as §1, §2

Human plasmin = biological target: T3, Human plasmin (Homo sapiens, UniProt P00747); experiment: Serine protease inhibition (Kass), plasmin
T3 construct: Human plasmin is purchased from Boehringer Mannheim; purchased Boehringer Mannheim, Indianapolis, Ind
Method: as §1
(§3) Human plasmin is purchased from Boehringer Mannheim, Indianapolis, Ind.; nt-PA is purchased as single chain activity reference from American Diagnostica, Greenwich, Conn.; modified-t-PA6 (mt-PA6) is prepared at Eli Lilly and Company by procedure known in the art (See, Burck, et al., J. Biol. Chem., 265, […] (1990). Plasmin chromogenic substrate H-D-Val-Leu-Lys-p-nitroanilide and tissue plasminogen activator (t-PA) substrate H-D-Ile-Pro-Arg-p-nitroanilide are purchased from Kabi Vitrum, Stockholm, Sweden.

[1] = biological target: T4, tissue plasminogen activator (t-PA) (Homo sapiens, UniProt P00750); experiment: Serine protease inhibition (Kass), t-PA
T4 construct: purchased American Diagnostica, Greenwich, Conn
Method: as §1, §3

human plasma [2] = experiment: Human plasma anticoagulation, thrombin time (TT)
Method: (§4) Fibrinogen is prepared from in-date ACD human blood as the fraction I-2 according to previous procedures and specifications. Smith, Biochem. […] Coagulation reagents ACTIN, Thromboplastin, and Human plasma are from Baxter Healthcare Corp., Dade Division, Miami, Fla. Bovine thrombin from Parke-Davis (Detroit, Mich.) is used for coagulation assays in plasma. Coagulation assay procedures are as previously described. […] A CoAScreener coagulation instrument (American LABor, Inc.) is used for all coagulation assay measurements. […] The compounds of formula I are added to human or animal plasma over a wide range of concentrations to determine prolongation effects on the APTT, PT, and TT assays. Linear extrapolations are performed to estimate the concentrations required to double the clotting time for each assay.

human plasma [3] = experiment: Human plasma anticoagulation, activated partial thromboplastin time (APTT)
Method: as §4

human plasma [4] = experiment: Human plasma anticoagulation, prothrombin time (PT)
Method: as §4

T1 sequence (P00742 235-488 limits assumed): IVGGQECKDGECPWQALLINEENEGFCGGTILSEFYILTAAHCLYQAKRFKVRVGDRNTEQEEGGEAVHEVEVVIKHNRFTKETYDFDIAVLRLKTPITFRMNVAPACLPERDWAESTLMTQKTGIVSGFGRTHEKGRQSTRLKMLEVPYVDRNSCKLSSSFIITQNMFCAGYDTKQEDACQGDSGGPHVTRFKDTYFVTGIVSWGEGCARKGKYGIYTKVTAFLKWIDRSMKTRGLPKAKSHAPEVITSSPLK
T1 sequence (P00742 41-179 partner limits assumed): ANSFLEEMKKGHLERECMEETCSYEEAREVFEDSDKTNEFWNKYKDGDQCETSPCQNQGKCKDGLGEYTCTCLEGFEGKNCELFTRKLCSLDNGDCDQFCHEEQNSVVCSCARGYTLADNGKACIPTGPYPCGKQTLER
T3 sequence (P00747 581-810 limits assumed): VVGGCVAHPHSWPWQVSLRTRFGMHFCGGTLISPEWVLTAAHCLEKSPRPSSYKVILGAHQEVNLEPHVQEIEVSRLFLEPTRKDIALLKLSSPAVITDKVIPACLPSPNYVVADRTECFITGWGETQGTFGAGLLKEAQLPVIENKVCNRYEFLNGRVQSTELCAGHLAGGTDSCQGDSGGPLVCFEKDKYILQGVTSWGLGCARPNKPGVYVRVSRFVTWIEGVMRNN
T3 sequence (P00747 97-580 partner limits assumed): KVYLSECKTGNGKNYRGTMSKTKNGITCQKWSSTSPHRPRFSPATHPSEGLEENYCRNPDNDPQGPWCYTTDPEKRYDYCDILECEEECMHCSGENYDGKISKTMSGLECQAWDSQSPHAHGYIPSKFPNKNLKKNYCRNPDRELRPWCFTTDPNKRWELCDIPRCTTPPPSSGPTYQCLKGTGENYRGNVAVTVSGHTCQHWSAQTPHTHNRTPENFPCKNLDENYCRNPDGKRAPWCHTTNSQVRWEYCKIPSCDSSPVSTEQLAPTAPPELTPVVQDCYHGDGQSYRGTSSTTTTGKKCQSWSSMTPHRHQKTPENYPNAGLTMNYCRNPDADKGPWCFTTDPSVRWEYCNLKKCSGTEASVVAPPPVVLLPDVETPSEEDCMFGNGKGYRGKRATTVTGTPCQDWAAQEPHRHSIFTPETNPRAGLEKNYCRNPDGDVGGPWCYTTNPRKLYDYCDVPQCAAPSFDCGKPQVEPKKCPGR
T4 sequence (P00750 36-562): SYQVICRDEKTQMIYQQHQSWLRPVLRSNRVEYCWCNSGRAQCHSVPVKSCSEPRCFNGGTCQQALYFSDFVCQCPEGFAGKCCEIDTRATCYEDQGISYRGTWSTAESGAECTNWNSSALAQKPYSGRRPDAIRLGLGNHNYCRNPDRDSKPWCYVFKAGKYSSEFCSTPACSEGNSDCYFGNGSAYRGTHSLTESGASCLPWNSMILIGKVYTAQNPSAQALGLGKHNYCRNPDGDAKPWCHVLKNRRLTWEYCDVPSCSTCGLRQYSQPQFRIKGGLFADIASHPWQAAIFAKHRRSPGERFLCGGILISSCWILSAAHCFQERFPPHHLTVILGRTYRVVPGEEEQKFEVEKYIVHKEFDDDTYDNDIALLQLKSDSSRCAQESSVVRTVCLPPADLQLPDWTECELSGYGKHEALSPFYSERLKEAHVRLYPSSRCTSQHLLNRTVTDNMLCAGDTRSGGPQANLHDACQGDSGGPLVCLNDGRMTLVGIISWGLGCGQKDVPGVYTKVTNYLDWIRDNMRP

Row | Structure (SMILES) | Kass Human Thrombin (human thrombin) [L/mol × 10^6] | Kass Xa (factor Xa) [L/mol × 10^6] | Kass Trypsin (Bovine trypsin) [L/mol × 10^6] | Kass Plasmin (Human plasmin) [L/mol × 10^6] | Kass t-PA [1] [L/mol × 10^6] | 2 × Clotting time TT (human plasma [2]) [ng/mL] | 2 × Clotting time APTT (human plasma [3]) | 2 × Clotting time PT (human plasma [4])
1 | Cl.Cl.N=C(N)NCCC[C@@H](C=O)NC(=O)[C@@H]1CCCN1C(=O)C1(Cc2ccccc2)CCN1 (some centres unmarked) [Example 26] | 75 | 0.12 | 17 | 0.17 | 0.0028 | 42 | 1,400 ng/mL | 1,100 ng/mL
2 | CCS(=O)(=O)N[C@@H](C(=O)N1CCC[C@H]1C(=O)N[C@H](C=O)CCCNC(=N)N)C1CCCCC1.Cl [Example 66, N-(ethylsulfonyl)-D-cyclohexylglycinyl-L-Prolinyl-L-Arginine Aldehyde Hydrochloride] | 260 | 24 | 260 | 13 | 0.11 | 46 | 330 ng/mL | 1,100 ng/mL
3 | Cc1noc(C)c1S(=O)(=O)N[C@H](Cc1ccccc1)C(=O)N1CCC[C@H]1C(=O)N[C@H](C=O)CCCNC(=N)N.Cl [Example 60, N-(3,5-dimethyl-4-isoxazolylsulfonyl)-D-phenylalanyl-L-Prolinyl-L-Arginine Aldehyde Hydrochloride] | 260 | 11 | 200 | 18 | 2.7 | 33 | 430 ng/mL | 1,300 ng/mL
4 | CCOC(=O)N[C@H](CC1CCCCC1)C(=O)N1CCC[C@H]1C(=O)N[C@H](C=O)CCCNC(=N)N.Cl [Example 78, N-(ethoxycarbonyl)-D-cyclohexylalanyl-L-prolinyl-L-Arginine Aldehyde Hydrochloride] | 360 | 8.1 | 140 | 26 | 0.75 | 48 | 410 ng/mL | 890 ng/mL
5 | CCOC(=O)NC(CC)(Cc1ccccc1)C(=O)N1CCC[C@H]1C(=O)N[C@H](C=O)CCCNC(=N)N.Cl (stereo partly drawn) [Example 36, N-ethoxycarbonylphenylalanyl(αethyl)-L-prolinyl-L-arginine aldehyde hydrochloride] | 6.5 | 0.078 | 4.7 | 0.058 | 0.001 | 310 | 5,000 ng/mL | 7,100 ng/mL
6 | Cl.Cn1c(C(=O)N[C@H](CC2CCCCC2)C(=O)N2CCC[C@H]2C(=O)N[C@H](C=O)CCCNC(=N)N)cc2ccccc21 [Example 49, N-(1-methylindolyl-2-carbonyl)-D-cyclohexylalanyl-L-Prolinyl-L-Arginine Aldehyde Hydrochlonde] | 320 | 4.6 | 7.9 | 25 | 1.1 | 110 | 1,000 ng/mL | 2,500 ng/mL
7 | CCC[C@](Cc1ccccc1)(NC(=O)OCC)C(=O)N1CCC[C@H]1C(=O)N[C@H](C=O)CCCNC(=N)N.Cl [Example 37] | 47 | 0.030 | 4.9 | 0.12 | < 0.001 | 71 | 4,100 ng/mL | 2,800 ng/mL
8 | C[C@@]1(C(=O)N[C@H](C=O)CCCNC(=N)N)CCCN1C(=O)[C@H](Cc1ccccc1)NS(C)(=O)=O.Cl [Example 44, N-methylsulfonylphenylalanyl(αmethyl)-L-prolinyl-L-arginine aldehyde hydrochloride] | 2.1 | 0.033 | 1.4 | 0.031 | 0.0023 | 560 | 12,000 ng/mL | 11,000 ng/mL
9 | CCCCC(CCCC)(NC(=O)OCC)C(=O)N1CCC[C@H]1C(=O)N[C@H](C=O)CCCNC(=N)N.Cl [Example 42, N-ethoxycarbonylglycinyl(α,αdi-n-butyl)-L-prolinyl-L-arginine aldehyde hydrochloride] |  | 0.22 | 38 | 0.24 | 0.010 | 120 | 3,000 ng/mL | 2,800 ng/mL

Source: patent publication US5436229A, “Bisulfite adducts of arginine aldehydes” (Eli Lilly and Company, priority 1994, dated 1995)
